Measured values taken from patent US11526981B2, “Ecotoxicity evaluation analyzing device including microalgae image analysis program installed therein, and method thereof” (KOREA INSTITUTE OF OCEAN SCIENCE & TECHNOLOGY, priority 2017, dated 2022).

System: dunaliella tertiolecta
Experiment: growth inhibition test (72 h) using microalgae, ecotoxicity evaluation
Format: cell-based
Details: 20° C.
Method: The used microalgae 1 is dunaliella tertiolecta, and when exposed to stress (toxicity), transforms the state from the original form 51 into a cyst form 61 and loses mobility.
Acetone was used as a toxic substance. In a test method using an exponential formula, the temperature was maintained at 20° C., and the Irradiation was continuously performed using a white fluorescent lamp with an illuminance of 6,000 to 7,000 lx.
Three replicated plots were inoculated with an initial concentration of 20,000 cells/mL, and the shaking speed was set to 100 r/min. Non-toxic filtered seawater containing nutrient medium was used as a dilution water, and growth inhibition was analyzed for 72 hours.
The experimental conditions in examples of the ecotoxicity evaluation analysis device 100 installed with the microalgae image analysis program therein according to the present invention and the analysis method using the same are shown in Table 2.
Referring to FIG. 5, in an example of the microalgae analysis method using the ecotoxicity evaluation analysis device 100 installed with the microalgae image analysis program therein according to the present invention, the performance of the technology of the present invention was verified using representative SR chamber and hemocytometer of the microalgae analysis method as controls. Here, the concentration of the microalgae 1 contained in the sample was analyzed every 24 hours. Cells were dyed in the two controls, whereas measurements were performed without dyeing the cells in the present technology. In the controls, a microscope (200×) was used, and a microalgae 1 counting was performed manually by an experienced expert.
Referring to FIG. 6, a growth inhibition test using microalgae 1 is performed to obtain a 50% effective concentration (EC50) of a toxic substance. The 50% effective concentration is treated as an important data base for various toxicity analysis. […]

Q: `CC(C)=O` [acetone] was tested. Which “50% effective concentration (EC50)” value (counting by SR chamber (manual, microscope, dyed cells)) did it give?
A: 25.6 mL/L

Q: And the “50% effective concentration (EC50)” value (counting by developed analyzer (present invention technology, CMOS shadow image, no dyeing))?
A: 24.2 mL/L

Q: What about the “50% effective concentration (EC50)” value (counting by hemocytometer (manual, microscope, dyed cells)) of the same molecule?
A: 24.9 mL/L
